Data on one compound can be found in patent publication US20250186403A1 (ARIZONA BOARD OF REGENTS ON BEHALF OF THE UNIVERSITY OF …, priority 2022, published 2025).

One series in a line: Pharmacokinetics in mice. Type of series: in vivo. The settings on record: 40 mg/kg BW oral gavage, male C57BL/6 mice, plasma. On the procedure:
Blood samples were collected at 0, 0.5, 1, 2, 4, 8, 12, 16, 24, and 36 h after oral gavage. […] Other PK parameters are in Table 4. The values represent means±SD. […] On day 0, mice were infected with H99 (10^7 cells/mice) intranasally or mock-infected with PBS. Mice were euthanized on day 5, and lungs were dissected out, homogenized in RPMI-1640-MOPS media, and plated onto Sabouraud dextrose agar plates containing antibiotics. Plates were incubated at 30° C. for 72 h, and colonies were counted. […] VC: Vehicle control, (90% corn oil, 10% DMSO). Dpi: Days post-infection. CFU: Colony-forming units.
Pharmacokinetics in mice: C57BL/6 mice (male, 2-3 months old) were obtained from breeding stocks maintained at the University of Arizona. All mice were housed under conditions of controlled temperature (22° C.) with the on-off light cycle, food, and water provided ad libitum and were fasted for 12 h before administration of the compound. […] Blood samples were collected from the tail vein using heparinized capillary tubes at 0, 0.5, 1, 2, 4, 8, 12, 16, 24, and 36 h after oral gavage. Plasma was separated and stored at −30° C. until use. For extraction of the compound, 5 μl of plasma from each mouse were mixed with 30 μL methanol and 10 μl of internal standard (IS; UAWJ102 50 ng/ml). The mixture was vortexed for 30 seconds and diluted with 760 µL Milli Q water, and loaded onto an ISOLUTER C18 SPE Columns (1 ml/100 mg, Biotage, Salem, NH) pre-conditioned with 1 ml methanol followed by 1 ml water, and the cartridge was then washed with 1 ml water. The analytes were finally eluted from the cartridges with 1 ml methanol containing 5% ammonia solution, dried with nitrogen, and reconstituted in 100 μl methanol.
The analyte was detected and quantified using LC-MS (Agilent 1290 UPLC system Agilent Technologies, Santa Clara, CA) and a Sciex Qtrap6500+ Mass Spectrometer (AB SCIEX, Framingham, MA). Analytes were separated on an EclipsePlus C18 column (2.1×50 mm, 1.8 μm, Agilent) at a temperature of 35° C., with mobile phase A containing 0.1% formic acid (v/v) in water and mobile phase B containing 0.1% formic acid (v/v) in methanol. Elution was at a flow rate of 0.2 mL/min as follows: 10% B (0-0.5 min), 10% B→95% B (0.5-3.5 min), 95% B (3.5-7 min), […] (7-7.1 min), 10% B (7.1-10 min). The MS was operated in the positive ion mode, using electrospray ionization. The ion spray voltage and temperature were set at 5000 V and 500° C., respectively. Curtain gas, ion source gas 1, and ion source gas 2 were set at 25, 50, 50 psi, respectively.

Series [1] deals with Cga split-cfGFP-Prp8 intein protein. As to the kind of experiment: Split GFP-Prp8 intein splicing assay (SDS-PAGE). Type of series: biochemical, Cryptococcus gattii. The conditions noted are these: vs DMSO control, 30 μM protein, 24 h. The protocol:
TCEP is added to a final concentration of 100 µM and incubated for 24 h. The substrate Nano-Glo luciferase (Promega) was added, and the resulting luminescence was read. IC50 was calculated using GraphPad prism. […] TCEP was added to a concentration of 1 mM and incubated for 24 h. From this reaction mixture, 10 μl was mixed with an equal volume of 2×SDA-PAGE loading dye and loaded onto 12% SDS-PAGE gel without boiling the sample. The gel was scanned with UV using Chemidoc (Bio Rad), and band intensities were quantified using Image Lab software. […] Cells were harvested and washed in PBS, lysed with bead lyser, and centrifuged at 10,000 rpm. An equal quantity of protein (50 μg) from each treatment was loaded onto 12% SDS-PAGE and blotted onto the NC membrane, blocked with 5% skimmed milk. The membrane was probed with anti-prp8 intein rabbit polyclonal sera, followed by goat anti-rabbit HRP antibody. Signals were developed using a chemiluminescent kit. The density of the spliced intein bands (˜20 kDa) were quantified using Image lab software. A band at ˜130 kDa is uncharacterized, as explained below. NC: nitrocellulose. Abs: absorbance […]
TCEP to a final concentration of 1 mM was added to induce splicing and further incubated at RT for 24 h. […] The band densities were quantified using image lab software.

Regarding `CNc1ccc2oc(C[C@H]3O[C@@]4(CC[C@H]3C)O[C@H]([C@H](C)C(=O)c3ccc[nH]3)[C@H](C)C[C@H]4C)nc2c1C(=O)O` [CMN, calcimycin], the t½ in “Pharmacokinetics in mice” (mean ± S.D. n = 5) came out at 7.2 h. In the series “Pharmacokinetics in mice” (male, C57BL/6, mouse, po, 40 mg/kg, mean ± S.D. n = 5), the Tmax is approximately 10 h. Also, the half-life in “Pharmacokinetics in mice” (male, C57BL/6, mouse, po, 40 mg/kg, mean ± S.D. n = 5, read-out: t½ (converted)) is 7.6 h. Also, the concentration in the series “Pharmacokinetics in mice” (mouse, mean ± S.D. n = 5) peaked (Cmax) at 301 ng/mL. In addition, the “splicing of split GFP-Prp8 intein” value in series [1] is listed as “inhibited with CMN dose-dependently”.
